Results from PubChem BioAssay (NCI).
“And” between values parts separate entries of the source, which are not always exact repeats. Identical values can stand only once.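 Briefly, cells in 96-well plates were exposed to five compound concentrations for 48 h, and endpoints were estimated by linear interpolation. At the GI50, growth is halved. TGI: total growth inhibition.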

What was measured:
Test in all cases: DTP human tumour cell line panel, 48 h
[1] = tested on: MCF7 breast
[2] = tested on: K-562 leukemia
[3] = tested on: SK-MEL-28 melanoma
[4] = tested on: TK-10 renal
[5] = tested on: SNB-75 CNS
[6] = tested on: BT-549 breast
[7] = tested on: HOP-62 NSCLC
[8] = tested on: PC-3 prostate
[9] = tested on: HS 578T breast
[10] = tested on: SN12C renal
[11] = tested on: M14 melanoma
[12] = tested on: NCI-H23 lung
[13] = tested on: MDA-MB-231 breast
[14] = tested on: SR leukemia
[15] = tested on: RPMI-8226 leukemia
[16] = tested on: SW-620 colon
[17] = tested on: SK-MEL-2 melanoma
[18] = tested on: SF-268 CNS
[19] = tested on: EKVX NSCLC
[20] = tested on: NCI-H226 lung
[21] = tested on: LOX IMVI melanoma
[22] = tested on: HCT-116 colon
[23] = tested on: OVCAR-8 ovarian
[24] = tested on: UACC-257 melanoma
[25] = tested on: SF-295 CNS
[26] = tested on: OVCAR-5 ovarian
[27] = tested on: NCI-H460 lung
[28] = tested on: HCC-2998 colon
[29] = tested on: HT29 colon
[30] = tested on: MOLT-4 leukemia
[31] = tested on: HL-60(TB) leukemia
[32] = tested on: NCI/ADR-RES ovarian
[33] = tested on: DU-145 prostate
[34] = tested on: SK-MEL-5 melanoma
[35] = tested on: KM12 colon
[36] = tested on: ACHN renal
[37] = tested on: U251 CNS
[38] = tested on: MALME-3M melanoma
[39] = tested on: T-47D breast
[40] = tested on: SF-539 CNS
[41] = tested on: NCI-H522 lung
[42] = tested on: UO-31 renal
[43] = tested on: SNB-19 CNS
[44] = tested on: UACC-62 melanoma
[45] = tested on: HOP-92 NSCLC
[46] = tested on: 786-0 renal
[47] = tested on: OVCAR-4 ovarian
[48] = tested on: SK-OV-3 ovarian
[49] = tested on: IGROV1 ovarian
[50] = tested on: MDA-MB-435
[51] = tested on: A549 NSCLC
[52] = tested on: CCRF-CEM leukemia
[53] = tested on: HCT-15 colon
[54] = tested on: RXF 393 renal
[55] = tested on: COLO 205 colon
[56] = tested on: OVCAR-3 ovarian
[57] = tested on: CAKI-1 renal

## COC(=O)[C@@H](C)C[C@H](Cc1ccccc1)NC(=O)c1cccc([C@@H](C[C@H](C(C)C)N(C)C(=O)[C@@H](NC(=O)[C@H]2CCCCN2C)C2CC2)OC(C)=O)n1
[1]
  GI50: 0.00333 µM
  TGI: 33.3 µM and > 100 µM
[2]
  GI50: 0.00333 µM
  TGI: 33.3 µM and > 100 µM
[3]
  GI50: 5.03 µM
  TGI: 33.3 µM
[4]
  TGI: 33.3 µM and > 100 µM
[5]
  TGI: 33.3 µM and > 100 µM
[6]
  GI50: 0.00333 µM
[7]
  GI50: 0.00333 µM and 0.0296 µM
[8]
  GI50: 0.00333 µM and 0.0223 µM
  TGI: 33.3 µM and > 100 µM
[9]
  TGI: 33.3 µM and > 100 µM
[10]
  TGI: 33.3 µM and > 100 µM
[11]
  TGI: 0.0358 µM
[12]
  TGI: 33.3 µM and > 100 µM
[13]
  GI50: 0.00333 µM and 0.0281 µM
  TGI: 4.35 µM and 24 µM
[14]
  GI50: 0.00333 µM
  TGI: 33.3 µM and 69.9 µM
[15]
  GI50: 0.00333 µM
  TGI: 7.63 µM and 55.6 µM
[16]
  GI50: 0.00333 µM
  TGI: 33.3 µM and > 100 µM
[17]
  GI50: 0.00333 µM
  TGI: 33.3 µM and > 100 µM
[18]
  TGI: 33.3 µM and > 100 µM
[19]
  TGI: 33.3 µM and > 100 µM
[20]
  TGI: 33.3 µM and > 100 µM
[21]
  GI50: 0.00333 µM and 0.019 µM
  TGI: 33.3 µM and > 100 µM
[22]
  GI50: 0.00333 µM
  TGI: 3.98 µM and 14.4 µM
[23]
  TGI: 33.3 µM and > 100 µM
[24]
  GI50: > 100 µM
  TGI: > 100 µM
[25]
  GI50: 0.0363 µM
  TGI: > 100 µM
[26]
  TGI: 33.3 µM and > 100 µM
[27]
  GI50: 0.00333 µM and 0.0297 µM
  TGI: 33.3 µM and > 100 µM
[28]
  TGI: 33.3 µM and > 100 µM
[29]
  GI50: 0.00333 µM
[30]
  TGI: 33.3 µM and > 100 µM
[31]
  TGI: 0.0111 µM
[32]
  GI50: 5.06 µM and 4.67 µM
  TGI: 33.3 µM and > 100 µM
[33]
  GI50: 0.00333 µM
  TGI: 33.3 µM and > 100 µM
[34]
  TGI: 1.14 µM
[35]
  GI50: 0.00333 µM and 0.0298 µM
  TGI: 33.3 µM and > 100 µM
[36]
  TGI: 33.3 µM and > 100 µM
[37]
  TGI: 33.3 µM and > 100 µM
[38]
  TGI: 33.3 µM and > 100 µM
[39]
  GI50: > 33.3 µM
  TGI: > 33.3 µM
[40]
  GI50: 0.02 µM
  TGI: 0.0764 µM
[41]
  TGI: 37.3 µM
[42]
  GI50: 0.0766 µM
  TGI: 33.3 µM
[43]
  GI50: 0.00333 µM
  TGI: 33.3 µM and > 100 µM
[44]
  GI50: 0.00333 µM
  TGI: 33.3 µM
[45]
  TGI: 13.6 µM and 86.6 µM
[46]
  TGI: 11.3 µM and > 100 µM
[47]
  TGI: 33.3 µM and > 100 µM
[48]
  GI50: 0.00333 µM and 0.0265 µM
  TGI: 33.3 µM and > 100 µM
[49]
  GI50: 0.00333 µM
  TGI: 33.3 µM and > 100 µM
[50]
  TGI: 0.0143 µM
[51]
  TGI: 33.3 µM and > 100 µM
[52]
  GI50: 0.00333 µM and 0.0234 µM
  TGI: 33.3 µM and > 100 µM
[53]
  TGI: 20.6 µM and > 100 µM

## COC(=O)C1=C(OC(=O)c2ccccc2)C(C(=O)OC)[C@]2(O)[C@@H](C(=O)OC)C1CC(c1ccccc1OC)[C@@H]2C(=O)OC (stereo partly drawn)
[1]
  GI50: 77.5 µM
  TGI: > 100 µM
[2]
  GI50: 17.6 µM
  TGI: > 100 µM
[3]
  GI50: 23.2 µM
  TGI: > 100 µM
[4]
  GI50: 26.5 µM
  TGI: > 100 µM
[5]
  GI50: 10.7 µM
  TGI: > 100 µM
[54]
  GI50: 2.53 µM
  TGI: 8.65 µM
[6]
  GI50: 5.58 µM
  TGI: 83.6 µM
[7]
  GI50: 38.3 µM
  TGI: > 100 µM
[55]
  GI50: 15.5 µM
  TGI: > 100 µM
[8]
  GI50: 9.08 µM
  TGI: 69.2 µM
[9]
  GI50: 5.98 µM
  TGI: 83.4 µM
[10]
  GI50: 10.2 µM
  TGI: 51.5 µM
[11]
  GI50: 18.6 µM
  TGI: 50.8 µM
[12]
  GI50: 24.2 µM
  TGI: 72.7 µM
[56]
  GI50: 2.55 µM
  TGI: > 100 µM
[13]
  GI50: 14.7 µM
  TGI: 60.2 µM
[14]
  GI50: 1.54 µM
  TGI: 5.16 µM
[15]
  GI50: 6.17 µM
  TGI: 38.2 µM
[16]
  GI50: 15.3 µM
  TGI: > 100 µM
[17]
  GI50: 36.2 µM
  TGI: > 100 µM
[18]
  GI50: > 100 µM
  TGI: > 100 µM
[19]
  GI50: 4.02 µM
  TGI: 35.3 µM
[20]
  GI50: 15.2 µM
  TGI: 80.7 µM
[21]
  GI50: 39.2 µM
  TGI: > 100 µM
[22]
  GI50: 13.9 µM
  TGI: 52.8 µM
[23]
  GI50: 18.4 µM
  TGI: > 100 µM
[24]
  GI50: 5.37 µM
  TGI: 34.8 µM
[25]
  GI50: 5.41 µM
  TGI: > 100 µM
[57]
  GI50: 3.99 µM
  TGI: > 100 µM
[26]
  GI50: 41.5 µM
  TGI: > 100 µM
[27]
  GI50: 50.9 µM
  TGI: > 100 µM
[28]
  GI50: 17.6 µM
  TGI: 34.1 µM
[29]
  GI50: 22.2 µM
  TGI: > 100 µM
[30]
  GI50: 5.52 µM
  TGI: 37.8 µM
[31]
  GI50: 14.7 µM
  TGI: 67.1 µM
[32]
  GI50: 21 µM
  TGI: 55.5 µM
[33]
  GI50: 5.51 µM
  TGI: > 100 µM
[34]
  GI50: 4.09 µM
  TGI: 20.5 µM
[35]
  GI50: 7.9 µM
  TGI: > 100 µM
[36]
  GI50: 41.9 µM
  TGI: > 100 µM
[37]
  GI50: 37.9 µM
  TGI: > 100 µM
[39]
  GI50: 22 µM
  TGI: > 100 µM
[40]
  GI50: 3.45 µM
  TGI: 10.8 µM
[41]
  GI50: 8.93 µM
  TGI: > 100 µM
[42]
  GI50: 13.9 µM
  TGI: 50.5 µM
[43]
  GI50: 25.1 µM
  TGI: > 100 µM
[44]
  GI50: 4.59 µM
  TGI: 23.2 µM
[45]
  GI50: 2.69 µM
  TGI: 31 µM
[46]
  GI50: 30.8 µM
  TGI: > 100 µM
[47]
  GI50: 4.75 µM
  TGI: > 100 µM
[48]
  GI50: 5.62 µM
  TGI: > 100 µM
[49]
  GI50: 44.5 µM
  TGI: > 100 µM
[50]
  GI50: 1.89 µM
  TGI: 4.4 µM
[51]
  GI50: 12.9 µM
  TGI: 77.9 µM
[53]
  GI50: 30.1 µM
  TGI: > 100 µM
